The source made the active and inactive calls. The calls are words filed in the database; no cut-off is given here.
Tests used:
Escherichia coli = assay: Antibacterial activity against Escherichia coli; type: functional
Pseudomonas aeruginosa = assay: Antibacterial activity against Pseudomonas aeruginosa; type: functional
[1] = target: Neuronal acetylcholine receptor; alpha3/beta4 (Rattus norvegicus) (UniProt P04757+P12392); assay: Displacement of [3H]epibatidine from alpha3beta4* nAChR in Sprague-Dawley rat forebrain membranes; settings: Membrane
Paecilomyces lilacinus = assay: Antifungal activity against Paecilomyces lilacinus; type: functional; settings: Purpureocillium lilacinum
Staphylococcus aureus = assay: Antibacterial activity against Staphylococcus aureus; type: functional
Sus scrofa = species on record: Sus scrofa; assay: Displacement of [3H]MLA from alpha7* nAChR in pig adrenal membranes; type: cell membranes
Tetronarce californica = assay: Displacement of [3H]epibatidine from (alpha1)2beta1gammadelta nAChR in Torpedo californica electroplax membranes
Aspergillus niger = assay: Antifungal activity against Aspergillus niger; type: functional
Penicillium chrysogenum = assay: Antifungal activity against Penicillium chrysogenum; type: functional
Homo sapiens = species on record: Homo sapiens; assay: Inhibition of TNFalpha-induced NFkappaB activation in HEK293 cells at 40 uM after 6 hrs by luciferase reporter gene assay relative to control; type: cell-based
A2780 = assay: Cytotoxicity against human A2780 cells assessed as reduction in cell viability at 20 ug/ml after 72 hrs by CyQuant dye based assay; type: functional
Fusarium graminearum = assay: Antifungal activity against Fusarium graminearum; type: functional
Bacillus subtilis = assay: Antibacterial activity against Bacillus subtilis; type: functional
[2] = target: Neuronal acetylcholine receptor; alpha4/beta2 (Rattus norvegicus) (UniProt P09483+P12390); assay: Displacement of [3H]epibatidine from alpha4beta2* nAChR in Sprague-Dawley rat forebrain membranes; settings: Membrane
[3] = Inhibition of TNFalpha-induced NFkappaB activation in HEK293 cells after 6 hrs by luciferase reporter gene assay; type: cell-based; settings: Homo sapiens, HEK293, 6 h

SMILES	Activity (Escherichia coli)	Activity (Pseudomonas aeruginosa)	inhibition [1]	Activity (Paecilomyces lilacinus)	Activity (Staphylococcus aureus)	inhibition (Sus scrofa)	inhibition (Tetronarce californica)	Activity (Aspergillus niger)	Activity (Penicillium chrysogenum)	inhibition (Homo sapiens)	Activity (A2780)	Activity (Fusarium graminearum)	Activity (Bacillus subtilis)	inhibition [2]	IC50 [3] [µM]
COc1cc([C@H]2Oc3c(OC)cc(/C=C/C(=O)NCCCCNC(N)=O)cc3[C@@H]2CO)ccc1O	inactive	inactive	inactive	inactive	inactive	inactive	inactive	inactive	inactive	inactive	inactive	inactive	inactive	inactive	–
COc1cc(/C=C/C(=O)NCCCCNC(N)=O)ccc1O	inactive	inactive	inactive	inactive	inactive	inactive	inactive	inactive	inactive	> 60%	inactive	inactive	inactive	inactive	36
